One data set has as its target T1, CYP3A4 (Homo sapiens, UniProt P08684).
T1 construct: pre-incubated with human liver microsomes and NADPH; from tissue; host or cells: human liver microsomes
Description: Cytochrome P450 inhibition assay (midazolam hydroxylation). Format: in vitro ADME. To be noted: human, human liver microsomes, probe midazolam (hydroxylation to 1′-hydroxymidazolam), 10 μM test compound, midazolam at approximately its Km. A digest of the protocol:
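Human liver microsomes; CYP3A4 activity as midazolam 1′-hydroxylation with substrate near Km, with or without 10 μM test compound, read as percent inhibition. For time-dependent inhibition, parallel samples were preincubated 30 min with NADPH before substrate, and percent inhibition compared with non-preincubated samples.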

For the next data set, the target named is T2, OX1 (Homo sapiens, UniProt O43613).
T2 construct: expressed in transfected cells; host or cells: CHO (CHO-OX1, kept under selection antibiotic)
T2 sequence (O43613 1-425): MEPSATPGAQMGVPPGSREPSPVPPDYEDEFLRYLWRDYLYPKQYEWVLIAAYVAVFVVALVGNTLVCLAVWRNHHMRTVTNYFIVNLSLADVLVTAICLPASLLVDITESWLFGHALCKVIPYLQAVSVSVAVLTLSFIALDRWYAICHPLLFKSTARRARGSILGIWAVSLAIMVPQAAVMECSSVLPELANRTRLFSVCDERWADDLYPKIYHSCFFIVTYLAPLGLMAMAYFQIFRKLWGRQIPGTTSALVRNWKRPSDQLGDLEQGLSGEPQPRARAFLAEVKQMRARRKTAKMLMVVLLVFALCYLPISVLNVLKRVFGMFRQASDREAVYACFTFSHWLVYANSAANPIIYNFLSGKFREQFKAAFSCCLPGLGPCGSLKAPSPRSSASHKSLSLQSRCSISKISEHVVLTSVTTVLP
Description: Orexin receptor cell-based functional assay, [Ca2+]i by FLIPR, CHO-OX1 cells. Conditions: CHO-OX1 cells, [Ca2+]i by FLIPR, antagonist dose-range 0.1 nM-10 μM, EC90 of OXA; read-out: OX1. In a few lines: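 CHO cells expressing human OX1 or OX2 loaded with calcium dye plus 2.5 mM probenecid at 37° C (calcium4, 30 min, or calcium6, 2 h), then exposed to compounds (0.1 nM-10 μM) for 30 min. Intracellular Ca2+ measured on FLIPR; antagonist format.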

As usually defined, the inhibition is the relative decrease from the control value, in per cent. The low end stands for little suppression, the high end for strong suppression.

T1 sequence (P08684 whole entry): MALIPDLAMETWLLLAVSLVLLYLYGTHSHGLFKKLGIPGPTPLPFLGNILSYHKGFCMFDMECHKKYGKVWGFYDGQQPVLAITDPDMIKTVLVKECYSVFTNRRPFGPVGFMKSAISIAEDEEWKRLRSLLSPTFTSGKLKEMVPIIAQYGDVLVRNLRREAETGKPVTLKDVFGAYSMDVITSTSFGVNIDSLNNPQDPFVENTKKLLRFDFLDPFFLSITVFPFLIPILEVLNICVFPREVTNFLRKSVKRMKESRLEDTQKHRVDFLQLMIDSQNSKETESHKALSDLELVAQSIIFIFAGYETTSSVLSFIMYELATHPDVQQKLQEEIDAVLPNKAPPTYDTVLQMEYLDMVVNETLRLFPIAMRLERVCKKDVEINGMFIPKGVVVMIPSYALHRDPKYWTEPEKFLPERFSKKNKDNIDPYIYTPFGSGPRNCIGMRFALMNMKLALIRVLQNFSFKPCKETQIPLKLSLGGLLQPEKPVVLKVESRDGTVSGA

At CYP3A4, `Cc1ccc(-c2cnn(C)c2)c(C(=O)N2CCC[C@@H](C)[C@H]2CNc2nc3ccccc3o2)c1` [Example A2, ((2S,3R)-2-((Benzo[d]oxazol-2-ylamino)methyl)-3-methylpiperidin-1-yl)(5-methyl-2-(1-methyl-1H-pyrazol-4-yl)phenyl)methanone] had an inhibition at 10 µM of 93%. The IC50 at OX1 came out at 61 nM. The corresponding values for `Cc1ccc(-c2cn[nH]c2)c(C(=O)N2CCC[C@@H](C)[C@H]2CNc2ccc(C(F)(F)F)cn2)c1` [Example A3, ((2S,3R)-3-Methyl-2-(((5-(trifluoromethyl)pyridin-2-yl)amino)methyl)piperidin-1-yl)(5-methyl-2-(1H-pyrazol-4-yl)phenyl)methanone] are 98% and 6 nM. The compound `Cc1cncc(-c2ccc(C)cc2C(=O)N2CCC[C@@H](C)[C@H]2CNc2ccc(C(F)(F)F)cn2)c1` [Example A5, ((2S,3R)-3-Methyl-2-(((5-(trifluoromethyl)pyridin-2-yl)amino)methyl)piperidin-1-yl)(5-methyl-2-(5-methylpyridin-3-yl)phenyl)methanone] yielded an inhibition at 10 µM at CYP3A4 of 98%. Also, the IC50 on OX1 turned out to be 6 nM.

`Cc1ccc(-c2ccn(C)c2)c(C(=O)N2CCC[C@@H](C)[C@H]2CNc2ccc(C(F)(F)F)cn2)c1` [Example A6, ((2S,3R)-3-Methyl-2-(((5-(trifluoromethyl)pyridin-2-yl)amino)methyl)piperidin-1-yl)(5-methyl-2-(1-methyl-1H-pyrrol-3-yl)phenyl)methanone] displayed an inhibition at 10 µM against CYP3A4 of 85%. Besides, the IC50 at OX1 is 13 nM. The corresponding values for `Cc1ccc(-c2cnccc2C)c(C(=O)N2CCC[C@@H](C)[C@H]2CNc2ccc(C(F)(F)F)cn2)c1` [Example A8, ((2S,3R)-3-Methyl-2-(((5-(trifluoromethyl)pyridin-2-yl)amino)methyl)piperidin-1-yl)(5-methyl-2-(4-methylpyridin-3-yl)phenyl)methanone] are 99% and 58 nM. The corresponding values for `Cc1ccc(-c2ccccn2)c(C(=O)N2CCC[C@@H](C)[C@H]2CNc2ccc(C(F)(F)F)cn2)c1` [Example A9, ((2S,3R)-3-Methyl-2-(((5-(trifluoromethyl)pyridin-2-yl)amino)methyl)piperidin-1-yl)(5-methyl-2-(pyridin-2-yl)phenyl)methanone] are 89% and 9 nM. For `Cc1ccc(-n2nccn2)c(C(=O)N2CCC[C@@H](C)[C@H]2CNc2ncc3ccccc3n2)c1` [Example A216, ((2S,3R)-3-Methyl-2-((quinazolin-2-ylamino)methyl)piperidin-1-yl)(5-methyl-2-(2H-1,2,3-triazol-2-yl)phenyl)methanone], the inhibition at 10 µM against CYP3A4 was determined as 67%.

`C[C@@H]1CCCN(C(=O)c2cc(F)ccc2-c2ncccn2)[C@@H]1CNc1ncc(Cl)cn1` [Example A226, ((2S,3R)-2-(((5-Chloropyrimidin-2-yl)amino)methyl)-3-methylpiperidin-1-yl)(5-fluoro-2-(pyrimidin-2-yl)phenyl) methanone] had an inhibition at 10 µM against CYP3A4 of 60%. As for `C[C@@H]1CCCN(C(=O)c2c(F)cccc2-c2ncccn2)[C@@H]1CNc1ncc(C(F)(F)F)cn1` [Example A240, (2-Fluoro-6-(pyrimidin-2-yl)phenyl)((2S,3R)-3-methyl-2-(((5-(trifluoromethyl)pyrimidin-2-yl)amino)methyl)piperidin-1-yl)methanone], 10 µM produced 42% inhibition at CYP3A4. Same read-out and setting: the value for `C[C@@H]1CCCN(C(=O)c2c(F)cccc2-c2ncccn2)[C@@H]1CNc1ccc(C(F)(F)F)cn1` [Example A241, (2-Fluoro-6-(pyrimidin-2-yl)phenyl)((2S,3R)-3-methyl-2-(((5-(trifluoromethyl)pyridin-2-yl)amino)methyl)piperidin-1-yl)methanone] was 62%; that for `C[C@@H]1CCCN(C(=O)c2cc(F)c(F)cc2-n2nccn2)[C@@H]1CNc1ccc(Cl)cn1` [Example A246, ((2S,3R)-2-(((5-Chloropyridin-2-yl)amino)methyl)-3-methylpiperidin-1-yl)(4,5-difluoro-2-(2H-1,2,3-triazol-2-yl)phenyl)methanone] was 69%. Regarding `C[C@@H]1CCCN(C(=O)c2cccc(F)c2-n2nccn2)[C@@H]1CNc1ncc(C(F)(F)F)cn1` [Example A256, (3-Fluoro-2-(2H-1,2,3-triazol-2-yl)phenyl)((2S,3R)-3-methyl-2-(((5-(trifluoromethyl)pyrimidin-2-yl)amino)methyl)piperidin-1-yl)methanone], the inhibition at 10 µM at CYP3A4 came to 52%. Still for that read-out and setting: the value for `Cc1cccc(C(=O)N2CCC[C@@H](C)[C@H]2CNc2ccc(C(F)(F)F)cn2)c1-n1nccn1` [Example A266, ((2S,3R)-3-Methyl-2-(((5-(trifluoromethyl)pyridin-2-yl)amino)methyl)piperidin-1-yl)(3-methyl-2-(2H-1,2,3-triazol-2-yl)phenyl)methanone] was 76%; that for `Cc1cccc(C(=O)N2CCC[C@@H](C)[C@H]2CNc2ncc(C(F)(F)F)cn2)c1-n1nccn1` [Example A267, ((2S,3R)-3-Methyl-2-(((5-(trifluoromethyl)pyrimidin-2-yl)amino)methyl)piperidin-1-yl)(3-methyl-2-(2H-1,2,3-triazol-2-yl)phenyl)methanone] was 65%; that for `Cc1cccc(C(=O)N2CCC[C@@H](C)[C@H]2CNc2ncc(Cl)cn2)c1-n1nccn1` [Example A268, ((2S,3R)-2-(((5-Chloropyrimidin-2-yl)amino)methyl)-3-methylpiperidin-1-yl)(3-methyl-2-(2H-1,2,3-triazol-2-yl)phenyl)methanone] was 60%. On CYP3A4, `Cc1cccc(C(=O)N2CCC[C@@H](C)[C@H]2CNc2ncc(C(F)(F)F)cn2)c1-c1ncccn1` [Example A299, ((2S,3R)-3-Methyl-2-(((5-(trifluoromethyl)pyrimidin-2-yl)amino)methyl)piperidin-1-yl)(3-methyl-2-(pyrimidin-2-yl)phenyl)methanone] yielded an inhibition at 10 µM of 51%. Take `Cc1ccc(-c2ncccn2)c(C(=O)N2CCC(F)(F)C[C@H]2CNc2ncc(C(F)(F)F)cn2)c1` [Example A312, (S)-(4,4-Difluoro-2-(((5-(trifluoromethyl)pyrimidin-2-yl)amino)methyl)piperidin-1-yl)(5-methyl-2-(pyrimidin-2-yl)phenyl)methanone]: testing at 10 µM on CYP3A4 gave an inhibition of 40%. Still for that read-out and setting: the value for `Cc1cc(C(=O)N2CCC[C@@H](C)[C@H]2CNc2ccc(C(F)(F)F)cn2)c(-n2nccn2)cc1F` [Example A368, (4-Fluoro-5-methyl-2-(2H-1,2,3-triazol-2-yl)phenyl)((2S,3R)-3-methyl-2-(((5-(trifluoromethyl)pyridin-2-yl)amino)methyl)piperidin-1-yl)methanone] was 83%; that for `Cc1cc(F)c(-c2ncccn2)c(C(=O)N2CCC[C@@H](C)[C@H]2CNc2ccc(C(F)(F)F)cn2)c1` [Example A374, (3-fluoro-5-methyl-2-(pyrimidin-2-yl)phenyl)((2S,3R)-3-methyl-2-(((5-(trifluoromethyl)pyridin-2-yl)amino)methyl)piperidin-1-yl)methanone] was 76%.

The record behind these values is patent US9440982B2 (Eolas Therapeutics, Inc., priority 2012, dated 2016).
